Source: patent US9308183B2, “Therapy for hyperexcitability disorders” (UCB PHARMA GMBH, priority 2006, dated 2016)
Read-outs that look alike come from different tables or passages of the source.

Assays:
[1] = test system: rat hippocampal slice cultures; assay type: cell-based
[2] = test system: rat hippocampal slice cultures; assay type: cell-based; conditions: for reduction of overall damage: LDH release 24 h after Glut
[3] = test system: Sodium channels in mouse neuroblastoma N1E-115 cells; experiment: Sodium current fast and slow inactivation in neuroblastoma cells (holding potential/prepulse protocols); assay type: cell-based; conditions: for current when the holding potential was −60 mV: 10 ms test pulse to 0 mV; for fraction available after 500 ms hyperpolarizing pulse to −100 mV, compared to control values: holding potential −60 mV; for % of channels in the slow inactivated state: held at −80 mV, 10 s to −10 mV, 1.5 s recovery, VEH 27%
sodium channels = assay type: cell-based; conditions: 100 μM
[4] = test system: voltage-gated Na+ channels; conditions: cited from earlier work
[5] = test system: TTX-resistant sodium currents in rat dorsal root ganglia; experiment: Slow inactivation of TTX-resistant sodium current in dorsal root ganglia; assay type: cell-based; conditions: 100 μM
[6] = test system: sodium channels in rat cortical neurons, NIE-115 cells and Xenopus oocytes; experiment: Effects upon firing, synaptic transmission and sodium channels in rat cortical neurons, NIE-115 cells and Xenopus oocytes; assay type: cell-based
129SVEV mice = experiment: Stress-induced hyperthermia (SIH) test, animal model for stress-induced anxiety; assay type: in vivo, mouse
Experimental: The room temperature was maintained between 20 and 23° C. with a relative humidity maintained between 30% and 70%.
On the day prior to testing, the mice were brought to the experimental room one hour before scheduled lights out and singly housed overnight with food and water ad libitum. […] The probe remained inside the animal for approximately 5 seconds or until body temperature reached stability. This temperature was recorded as the baseline rectal temperature (T1). […] Before each insertion, the rectal probe was cleaned with an alcohol pad and lubricated with sterile K-Y jelly.

[7] = target: T1, rat type II sodium channel alpha subunit (Nav1.2) (Rattus norvegicus, UniProt P04775); experiment: Sodium currents in Xenopus oocytes expressing sodium channel alpha subunits; assay type: cell-based
T1 construct: expressed in transfected cells; host or cells: Xenopus oocytes
T1 sequence (P04775 whole entry): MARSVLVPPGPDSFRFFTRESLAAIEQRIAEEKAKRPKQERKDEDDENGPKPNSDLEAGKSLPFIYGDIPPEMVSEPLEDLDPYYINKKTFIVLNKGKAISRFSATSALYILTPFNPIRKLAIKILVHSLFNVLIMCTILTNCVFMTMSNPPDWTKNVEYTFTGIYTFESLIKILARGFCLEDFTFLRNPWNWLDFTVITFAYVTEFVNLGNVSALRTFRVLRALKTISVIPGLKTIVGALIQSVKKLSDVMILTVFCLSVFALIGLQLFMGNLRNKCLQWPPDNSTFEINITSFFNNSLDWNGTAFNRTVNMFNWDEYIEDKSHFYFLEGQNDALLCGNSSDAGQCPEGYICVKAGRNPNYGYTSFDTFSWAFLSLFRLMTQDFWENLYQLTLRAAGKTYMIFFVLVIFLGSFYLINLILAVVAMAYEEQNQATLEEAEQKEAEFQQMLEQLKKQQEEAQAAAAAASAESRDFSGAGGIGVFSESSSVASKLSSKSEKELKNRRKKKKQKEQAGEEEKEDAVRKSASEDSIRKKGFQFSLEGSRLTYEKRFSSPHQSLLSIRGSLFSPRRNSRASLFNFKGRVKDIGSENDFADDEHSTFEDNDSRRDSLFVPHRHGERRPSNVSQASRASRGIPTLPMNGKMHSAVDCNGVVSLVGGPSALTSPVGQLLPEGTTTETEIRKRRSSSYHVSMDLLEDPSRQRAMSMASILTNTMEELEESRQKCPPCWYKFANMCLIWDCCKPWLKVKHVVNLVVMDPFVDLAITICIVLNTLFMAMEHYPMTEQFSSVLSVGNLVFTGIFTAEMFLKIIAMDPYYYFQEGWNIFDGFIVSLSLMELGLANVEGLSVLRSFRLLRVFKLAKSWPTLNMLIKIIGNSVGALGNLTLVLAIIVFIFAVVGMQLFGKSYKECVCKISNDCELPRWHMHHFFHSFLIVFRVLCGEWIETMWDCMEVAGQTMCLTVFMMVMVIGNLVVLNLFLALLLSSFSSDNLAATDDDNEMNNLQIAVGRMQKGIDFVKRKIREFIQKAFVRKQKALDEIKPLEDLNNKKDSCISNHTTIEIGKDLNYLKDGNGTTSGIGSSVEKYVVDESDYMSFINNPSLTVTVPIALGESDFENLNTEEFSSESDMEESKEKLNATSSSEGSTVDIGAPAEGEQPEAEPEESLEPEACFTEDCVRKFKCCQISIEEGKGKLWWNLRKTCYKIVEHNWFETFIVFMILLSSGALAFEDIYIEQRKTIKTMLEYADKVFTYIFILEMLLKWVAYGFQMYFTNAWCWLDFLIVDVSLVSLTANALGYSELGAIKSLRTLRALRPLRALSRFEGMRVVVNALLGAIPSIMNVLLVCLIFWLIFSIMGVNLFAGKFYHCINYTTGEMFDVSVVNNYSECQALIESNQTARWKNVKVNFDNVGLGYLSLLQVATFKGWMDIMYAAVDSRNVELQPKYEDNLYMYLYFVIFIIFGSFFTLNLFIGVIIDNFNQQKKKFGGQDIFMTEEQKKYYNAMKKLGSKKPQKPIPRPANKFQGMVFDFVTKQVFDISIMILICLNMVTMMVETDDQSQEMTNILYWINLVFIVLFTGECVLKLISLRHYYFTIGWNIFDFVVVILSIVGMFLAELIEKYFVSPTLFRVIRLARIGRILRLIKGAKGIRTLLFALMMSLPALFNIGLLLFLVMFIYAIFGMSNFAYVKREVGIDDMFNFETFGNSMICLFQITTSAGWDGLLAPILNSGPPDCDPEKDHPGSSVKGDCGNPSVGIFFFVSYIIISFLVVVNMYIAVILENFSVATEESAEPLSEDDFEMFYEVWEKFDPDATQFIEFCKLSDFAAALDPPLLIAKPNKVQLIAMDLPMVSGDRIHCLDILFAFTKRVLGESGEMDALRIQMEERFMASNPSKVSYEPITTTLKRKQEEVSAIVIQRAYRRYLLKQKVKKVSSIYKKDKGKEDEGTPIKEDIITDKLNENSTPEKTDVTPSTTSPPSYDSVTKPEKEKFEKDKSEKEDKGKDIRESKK

[8] = 10 μM, 15 mM glutamate for 24 h

C[C@]12N[C@H](Cc3ccccc31)c1ccccc12 [MK-801]
neuronal damage (PI uptake, CA1-CA3) 24 h after Glut [1, 8]: significant protection | reduction of neuronal damage ([1]; 10 μM, PI uptake 24 h after Glut): ~80% | overall damage (LDH release) 24 h after Glut [2, 8]: significant protection | reduction of overall damage ([2]; 10 μM): ~50%

NC1=N[C@H](O)[C@H]2[C@H]3O[C@]4(O)O[C@@H]([C@@H](O)[C@@]2(N1)[C@@H]4O)[C@]3(O)CO [Tetrodotoxin]
neuronal damage (PI uptake, CA1-CA3) 24 h after Glut [1]: neuroprotective effect | reduction of neuronal damage [1]: ~50% | overall damage (LDH release) 24 h after Glut [2]: protective effect | reduction of general damage [2]: 20-40%

NC(=O)N1c2ccccc2C=Cc2ccccc21 [carbamazepine, reference compound]
current when the holding potential was −60 mV ([3]; 100 μM): reduction in current | fraction available after 500 ms hyperpolarizing pulse to −100 mV, compared to control values ([3]; 100 μM): 0.94±0.19

COC[C@@H](NC(C)=O)C(=O)NCc1ccccc1 [lacosamide, (R)-2-acetamido-N-benzyl-3-methoxy-propionamide]
fraction of sodium channels slowly inactivated by a 10 s depolarizing pulse (sodium channels): significantly increased | half-life for channel recovery (sodium channels; after 10 s depolarizing pulse): not significantly changed | fast inactivation gating of voltage-gated Na+ channels [4]: does not exert its effects on neuronal excitability by affecting fast inactivation gating | slow inactivation of TTX-resistant sodium currents [5]: markedly increased | V50 for slow inactivation ([3]; 32 μM and 100 μM): shift of the V50 for slow inactivation to more negative potentials | % of channels in the slow inactivated state ([3]; 32 μM): 37% | conditioning potential of first significant change in channel availability ([3]; 100 μM): −80 mV | reduction of sodium channel availability that resulted from entry into the slow inactivated state ([3]; 100 μM): more than doubled | current when the holding potential was −60 mV ([3]; 100 μM): reduction in current | inhibition after hyperpolarizing prepulse (removal of fast inactivation) ([3]; 100 μM, 500 ms pulse to −100 mV): not altered | % of channels in the slow inactivated state ([3]; 100 μM): 50% | % of channels in the slow inactivated state ([3]; 320 μM): 62% | slow inactivation voltage curves ([3]; concentration dependent): shifted the slow inactivation voltage curves to more hyperpolarized membrane potentials | maximal fraction of current made unavailable by depolarisation ([3]; conditioning potential −10 mV, CONTROL 0.70±0.02): 0.41±0.04 | time constant for entry into slow inactivation ([3]; in the presence of the drug, physiological 12.0 s): 4.8 s | frequency of miniature excitatory post-synaptic potentials [6]: not reduced | prolonged sustained repetitive firing on action potentials [6]: inhibits | rate of sodium channel fast inactivation [6]: does not change | resting conductances [6]: no effect | slow prolonged bursting in cortical neurons [6]: inhibits | steady state fast inactivation voltage curves [6]: does not shift | sustained repetitive firing [6]: did not block | synaptic transmission under normal physiologic conditions [6]: did not modulate | action potential firing evoked by brief depolarising steps or ramps ([6]; initial studies): very limited effect | rate of synaptic traffic in cultured neurons ([6]; stereoselective and concentration dependent): attenuates | reduction of Glut-induced necrosis (neuronal damage) [1]: 40-50% | effect on SIH compared to saline (129SVEV mice; 3 mg/kg i.p. 60 min prior to testing): significantly attenuated | effect on SIH compared to saline (129SVEV mice; 10 mg/kg i.p. 60 min prior to testing): significantly attenuated | effect on SIH compared to saline (129SVEV mice; 30 mg/kg i.p. 60 min prior to testing): No significant effects | reduction of overall damage ([2]; 1, 10 and 100 μM): 30-40% | slow inactivation voltage curve ([7]; 100 μM, Xenopus oocytes, Nav1.2): pronounced shift | inhibition of sodium currents ([7]; oocyte expression system): rapid and profoundly voltage dependent inhibition

Nc1nnc(-c2cccc(Cl)c2Cl)c(N)n1 [lamotrigine, reference compound]
current when the holding potential was −60 mV ([3]; 100 μM): reduction in current | fraction available after 500 ms hyperpolarizing pulse to −100 mV, compared to control values ([3]; 100 μM): 0.88±0.06

O=C1NC(=O)C(c2ccccc2)(c2ccccc2)N1 [phenytoin, reference compound]
current when the holding potential was −60 mV ([3]; 100 μM): reduction in current | fraction available after 500 ms hyperpolarizing pulse to −100 mV, compared to control values ([3]; 100 μM): 0.99±0.05

CC(C)C[C@H](CN)CC(=O)O [pregabalin, reference compound]
effect on SIH compared to saline (129SVEV mice; mouse, in vivo, ip): No significant effects
